Test results taken from PubChem BioAssay AID248 (DTP/NCI, 2004).
Values joined by “and” are separate entries in the source; they are usually repeats but may differ in a detail not shown here. Identical values can stand only once. Toxic doses and inconclusive results are not listed.

System: L1210 leukemia ip in BDF1 mice, survival T/C
Assay: NCI In Vivo Anticancer Drug Screen. Data for tumor model L1210 Leukemia (intraperitoneal) in B6D2F1 (BDF1) mice
Conditions: endpoint: mean survival time, higher = longer survival
How it was run: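 Ratio derived from survival: compound-dosed mice over vehicle-dosed mice, all bearing a transplantable tumor.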

[1] = dose: 50.0 mg/kg/injection, schedule: Q01DX009 (ip), vehicle: saline
[2] = dose: 100.0 mg/kg/injection, schedule: Q04DX003 (ip), vehicle: Klucel (hydroxypropylcellulose) (HPC)
[3] = dose: 200.0 mg/kg/injection, schedule: Q04DX003 (ip), vehicle: Klucel (hydroxypropylcellulose) (HPC)
[4] = dose: 400.0 mg/kg/injection, schedule: Q04DX003 (ip), vehicle: Klucel (hydroxypropylcellulose) (HPC)
[5] = dose: 100.0 mg/kg/injection, schedule: Q01DX001 (ip), vehicle: saline
[6] = dose: 200.0 mg/kg/injection, schedule: Q01DX001 (ip), vehicle: saline
[7] = dose: 100.0 mg/kg/injection, schedule: Q01DX009 (ip), vehicle: Klucel (hydroxypropylcellulose) (HPC)
[8] = dose: 200.0 mg/kg/injection, schedule: Q01DX009 (ip), vehicle: Klucel (hydroxypropylcellulose) (HPC)
[9] = dose: 400.0 mg/kg/injection, schedule: Q01DX009 (ip), vehicle: Klucel (hydroxypropylcellulose) (HPC)

Compound: c1nc(SC2=NCCN2)c2[nH]cnc2n1
- T/C (dose: 2.62 mg/kg/injection, schedule: Q01DX Z (ip), vehicle: saline): 116 % of control
- T/C (dose: 5.0 mg/kg/injection, schedule: Q01DX001 (ip), vehicle: saline): 100 % of control
- T/C (dose: 5.25 mg/kg/injection, schedule: Q01DX Z (ip), vehicle: saline): 118 % of control
- T/C (dose: 5.25 mg/kg/injection, schedule: Q01DX Z (oral), vehicle: saline): 114 % of control
- T/C (dose: 10.0 mg/kg/injection, schedule: Q01DX001 (ip), vehicle: saline): 105 % of control
- T/C (dose: 10.5 mg/kg/injection, schedule: Q01DX Z (oral), vehicle: saline): 114 % of control
- T/C (dose: 12.5 mg/kg/injection, schedule: Q01DX009 (ip), vehicle: saline): 115 % of control
- T/C (dose: 12.5 mg/kg/injection, schedule: Q04DX003 (ip), vehicle: saline): 109 % of control
- T/C (dose: 20.0 mg/kg/injection, schedule: Q01DX001 (ip), vehicle: saline): 103 % of control
- T/C (dose: 22.0 mg/kg/injection, schedule: Q04DX003 (ip), vehicle: saline): 106 % of control
- T/C (dose: 25.0 mg/kg/injection, schedule: Q01DX009 (ip), vehicle: saline): 118 % of control
- T/C (dose: 25.0 mg/kg/injection, schedule: Q04DX003 (ip), vehicle: saline): 117 % of control
- T/C (dose: 33.0 mg/kg/injection, schedule: Q04DX003 (ip), vehicle: saline): 114 % of control and 116 % of control
- T/C (dose: 40.0 mg/kg/injection, schedule: Q01DX001 (ip), vehicle: saline): 108 % of control
- T/C (dose: 42.0 mg/kg/injection, schedule: Q01DX Z (ip), vehicle: saline): 156 % of control
- T/C [1]: 150 % of control and 178 % of control
- T/C (dose: 50.0 mg/kg/injection, schedule: Q04DX003 (ip), vehicle: saline): 115 % of control and 118 % of control
- T/C (dose: 168.0 mg/kg/injection, schedule: Q01DX Z (oral), vehicle: saline): 87 % of control

Compound: CCCCCCCCCCCCNC
- T/C (dose: 12.5 mg/kg/injection, schedule: Q01DX009 (ip), vehicle: saline with Tween-80): 92 % of control
- T/C (dose: 25.0 mg/kg/injection, schedule: Q01DX009 (ip), vehicle: saline with Tween-80): 93 % of control
- T/C (dose: 25.0 mg/kg/injection, schedule: Q04DX003 (ip), vehicle: saline with Tween-80): 103 % of control
- T/C (dose: 50.0 mg/kg/injection, schedule: Q01DX009 (ip), vehicle: saline with Tween-80): 91 % of control
- T/C (dose: 50.0 mg/kg/injection, schedule: Q04DX003 (ip), vehicle: saline with Tween-80): 93 % of control
- T/C (dose: 100.0 mg/kg/injection, schedule: Q04DX003 (ip), vehicle: saline with Tween-80): 93 % of control

Compound: NC(N)=N/N=C/c1c2ccccc2cc2ccccc12
- T/C (dose: 15.0 mg/kg/injection, schedule: Q01DX Z (ip), vehicle: carboxymethylcellulose (CMC)): 101 % of control
- T/C (dose: 30.0 mg/kg/injection, schedule: Q01DX Z (ip), vehicle: carboxymethylcellulose (CMC)): 101 % of control
- T/C (dose: 240.0 mg/kg/injection, schedule: Q01DX Z (oral), vehicle: carboxymethylcellulose (CMC)): 104 % of control

Compound: O=NN(Cc1cnc2[nH]c(=O)[nH]c(=O)c2n1)c1ccc(C(=O)NC(CCC(=O)O)C(=O)O)cc1 (stereo unspecified)
- T/C (dose: 3.13 mg/kg/injection, schedule: Q01DX009 (ip), vehicle: water): 100 % of control
- T/C (dose: 6.25 mg/kg/injection, schedule: Q01DX009 (ip), vehicle: water): 102 % of control
- T/C (dose: 12.5 mg/kg/injection, schedule: Q01DX009 (ip), vehicle: water): 88 % of control
- T/C (dose: 25.0 mg/kg/injection, schedule: Q01DX009 (ip), vehicle: water): 98 % of control
- T/C (dose: 50.0 mg/kg/injection, schedule: Q01DX009 (ip), vehicle: water): 93 % of control

Compound: O=C(NCc1ccccc1)c1ccc(C(=O)NCc2ccccc2)cc1
- T/C (dose: 100.0 mg/kg/injection, schedule: Q01DX001 (ip), vehicle: other): 90 % of control
- T/C (dose: 200.0 mg/kg/injection, schedule: Q01DX001 (ip), vehicle: other): 88 % of control
- T/C (dose: 400.0 mg/kg/injection, schedule: Q01DX001 (ip), vehicle: other): 96 % of control

Compound: CC(C)(C)CC(C)(C)c1ccc(OCCOc2ccc(NS(=O)(=O)c3ccc([N+](=O)[O-])cc3)cc2)cc1
- T/C [2]: 91 % of control
- T/C [3]: 100 % of control
- T/C [4]: 91 % of control

Compound: Cc1cc(C)c(CCN(C)C)c(C)c1
- T/C (dose: 50.0 mg/kg/injection, schedule: Q01DX001 (ip), vehicle: saline): 101 % of control
- T/C [5]: 97 % of control
- T/C [6]: 91 % of control

Compound: O=C(O)CCC(=O)c1ccccc1
- T/C [1]: 97 % of control
- T/C [7]: 100 % of control
- T/C (dose: 100.0 mg/kg/injection, schedule: Q01DX009 (ip), vehicle: saline): 97 % of control
- T/C (dose: 100.0 mg/kg/injection, schedule: Q04DX002 (ip), vehicle: Klucel (hydroxypropylcellulose) (HPC)): 97 % of control
- T/C (dose: 100.0 mg/kg/injection, schedule: Q04DX002 (ip), vehicle: saline with Tween-80): 108 % of control
- T/C [8]: 96 % of control
- T/C (dose: 200.0 mg/kg/injection, schedule: Q01DX009 (ip), vehicle: saline): 105 % of control
- T/C (dose: 200.0 mg/kg/injection, schedule: Q04DX002 (ip), vehicle: Klucel (hydroxypropylcellulose) (HPC)): 91 % of control
- T/C (dose: 200.0 mg/kg/injection, schedule: Q04DX002 (ip), vehicle: saline with Tween-80): 105 % of control
- T/C [9]: 107 % of control
- T/C (dose: 400.0 mg/kg/injection, schedule: Q04DX002 (ip), vehicle: Klucel (hydroxypropylcellulose) (HPC)): 87 % of control
- T/C (dose: 400.0 mg/kg/injection, schedule: Q04DX002 (ip), vehicle: saline with Tween-80): 105 % of control

Compound: COc1ccc(CCO)c(OC)c1
- T/C (dose: 50.0 mg/kg/injection, schedule: Q01DX001 (ip), vehicle: carboxymethylcellulose (CMC)): 98 % of control
- T/C (dose: 100.0 mg/kg/injection, schedule: Q01DX001 (ip), vehicle: carboxymethylcellulose (CMC)): 100 % of control
- T/C (dose: 200.0 mg/kg/injection, schedule: Q01DX001 (ip), vehicle: carboxymethylcellulose (CMC)): 96 % of control
- T/C (dose: 400.0 mg/kg/injection, schedule: Q01DX001 (ip), vehicle: carboxymethylcellulose (CMC)): 88 % of control

Compound: Cc1cc(C(=O)NNCc2ccccc2)no1
- T/C (dose: 12.5 mg/kg/injection, schedule: Q01DX009 (ip), vehicle: Klucel (hydroxypropylcellulose) (HPC)): 102 % of control
- T/C (dose: 25.0 mg/kg/injection, schedule: Q01DX009 (ip), vehicle: Klucel (hydroxypropylcellulose) (HPC)): 96 % of control
- T/C (dose: 50.0 mg/kg/injection, schedule: Q01DX009 (ip), vehicle: Klucel (hydroxypropylcellulose) (HPC)): 97 % of control

Compound: CCOC(=O)c1cnc(SC)nc1NN=C(C)C
- T/C [2]: 92 % of control
- T/C [3]: 95 % of control
- T/C [4]: 93 % of control

Compound: Cc1ccn(C(N)=O)n1
- T/C [7]: 107 % of control
- T/C [2]: 98 % of control
- T/C [8]: 102 % of control
- T/C [3]: 96 % of control
- T/C [9]: 115 % of control
- T/C [4]: 100 % of control

Compound: O=C(O)CCc1c2ccc(=O)cc-2oc2cc(O)ccc12
- T/C [2]: 91 % of control
- T/C [3]: 91 % of control
- T/C [4]: 92 % of control

Compound: CC1CC([O-])=N/[N+]1=C\c1ccccc1 (stereo unspecified)
- T/C [5]: 97 % of control
- T/C (dose: 100.0 mg/kg/injection, schedule: Q01DX009 (ip), vehicle: saline with Tween-80): 96 % of control
- T/C [6]: 95 % of control
- T/C (dose: 200.0 mg/kg/injection, schedule: Q01DX009 (ip), vehicle: saline with Tween-80): 87 % of control
- T/C (dose: 400.0 mg/kg/injection, schedule: Q01DX001 (ip), vehicle: saline): 97 % of control

Compound: COc1cc2ccc(CC3NCCc4cc5c(cc43)OCO5)cc2cc1OC (stereo unspecified)
- T/C (dose: 100.0 mg/kg/injection, schedule: Q01DX009 (ip), vehicle: saline sonified): 93 % of control
- T/C (dose: 100.0 mg/kg/injection, schedule: Q04DX003 (ip), vehicle: saline sonified): 88 % of control
- T/C (dose: 200.0 mg/kg/injection, schedule: Q01DX009 (ip), vehicle: saline sonified): 98 % of control
- T/C (dose: 200.0 mg/kg/injection, schedule: Q04DX003 (ip), vehicle: saline sonified): 88 % of control
- T/C (dose: 400.0 mg/kg/injection, schedule: Q01DX009 (ip), vehicle: saline sonified): 93 % of control
- T/C (dose: 400.0 mg/kg/injection, schedule: Q04DX003 (ip), vehicle: saline sonified): 95 % of control

Compound: C[n+]1ccn(CCCl)c1
- T/C (dose: 25.0 mg/kg/injection, schedule: Q01DX Z (ip), vehicle: saline): 96 % of control
- T/C (dose: 50.0 mg/kg/injection, schedule: Q01DX Z (ip), vehicle: saline): 93 % of control
- T/C (dose: 100.0 mg/kg/injection, schedule: Q01DX Z (ip), vehicle: saline): 96 % of control
